Experimental data taken from patent US5254726A, “No-carrier-added (NCA) aryl (18E) fluorides via the nucleophilic aromatic substitution of electron rich aromatic rings” (priority 1991, dated 1993).
“Also recorded” adds a separate entry of the source. Where two headings read alike, the source gives them in different places.

How the values were obtained:
[1] = literature; cited from earlier work
[2] = system: adrenergic nerve terminals; conditions: cited from earlier work; for neuronal uptake and storage: literature
human heart = conditions: Schwaiger et al. 1990, Kopin 1990; cited from earlier work
dog heart = conditions: Wieland et al. 1990, Rosenspire et al. 1989; cited from earlier work
dopamine β-hydroxylase [3] = type: biochemical; conditions: pH 5.7, 30° C.; for product formed by dopamine β-hydroxylase: substrate incubation, chiral HPLC
Experimental: Two enzyme incubations, with dopamine and 6-fluorodopamine, respectively, were performed simultaneously, as follows:
12(a) Dopamine Hydroxylation. A mixture of 0.5 mg of dopamine, potassium phosphate buffer (0.3 mL, pH 5.7), 0.5M ascorbic acid (0.02 mL, pH 5.7), 1M sodium formate (0.05 mL), and dopamine β-hydroxylase solution (0.05 mL) was stirred in a closed vial at 30° C. The cap was removed and the vial was shaken periodically. An aliquot (ca. 1 μL) was withdrawn and subjected to chiral HPLC analysis as the reaction progressed. HPLC conditions were as follows: Crownpak CR (+) columns, 15×0.46 cm, 254 nm, 0.02M HClO4, 0.7 mL/min.
12(b) 6-Fluorodopamine Hydroxylation. The same procedure was used as described in 12(a), except 0.4 mg of 6-fluorodopamine, kindly provided by Dr. Kenneth Kirk at the National Institutes of Health, was used as a substrate.
Radiat. Isot., 41, 463 (1990) the disclosure of which is incorporated by reference herein, for [^11 C]octopamine enantiomers when a Crownpak CR(+) HPLC column was used.

[4] = set-up: species or system baboon (Papio anubis); conditions: in vivo
Experimental: (§1) Adult female baboons were anesthetized and prepared for PET studies as described by Dewey et al., Synapse, 5, 213 (1990) the description of which is incorporated by reference herein. A solution of racemic 6-[^18 F]FNE (5 mCi, 0.4 μg) in 3 mL of saline was injected intravenously. Scanning was performed for 140 minutes in a Computer Technology Imaging (CTI) positron tomograph (model 931-08/12; 15 slice, 6.5-mm slice thickness, full width at half maximum (FWHM) with an in-plane resolution of 6.0×6.0 mm (FWHM). The following scanning protocol was used: ten 30-s scans, followed by five 60-s scans, followed by ten 5-minute scans, followed by eight 10-minute scans. In every case, an initial transmission scan was performed 2.0 minutes prior to radiotracer injection in order to determine the proper position of the animal in the gantry. Upon completion of this scan, adjustments in position were made as necessary and a regular transmission scan (10 minutes) was performed in order to correct for the attenuation of the annihilation photons. The tomograph was cross calibrated with the well-counter used for the measurement of radioactivity in the plasma samples. […] Vital signs including heart and respiratory rate were monitored and recorded throughout the length of the study. […]

[5] = Plasma/blood clearance of F-18 in the baboon; type: in vivo, baboon (Papio anubis); conditions: racemic, 5 mCi i.v.
Experimental: (§2) FIG. 8 is a time-activity curve for F-18 in the baboon mycocardium (left ventricular wall and septum) after injection of 5 mCi of racemic 6-[^18 F]FNE. FIG. 9 is a graph showing plasma clearance of F-18 in the baboon after injection of racemic 6-[^18 F]FNE. […] Radioactivity remained at 0.032% of the peak activity by 120 minutes post injection. The ratio of myocardium to plasma was 7 at 5 minutes and 11.2 at 135 minutes. The experiment was carried out as follows:
Adult female baboons were anesthetized and prepared for PET studies as described by Dewey et al., Synapse, 5, 213 (1990) the description of which is incorporated by reference herein. A solution of racemic 6-[^18 F]FNE (5 mCi, 0.4 μg) in 3 mL of saline was injected intravenously. […] The tomograph was cross calibrated with the well-counter used for the measurement of radioactivity in the plasma samples. […] Vital signs including heart and respiratory rate were monitored and recorded throughout the length of the study.

[6] = system: baboon mycocardium (left ventricular wall and septum); assay: PET study of baboon heart after injection of racemic 6-[^18 F]FNE; type: in vivo, baboon (Papio anubis)
Experimental: as §2
Adult female baboons were anesthetized and prepared for PET studies as described by Dewey et al., Synapse, 5, 213 (1990) the description of which is incorporated by reference herein. A solution of racemic 6-[^18 F]FNE (5 mCi, 0.4 μg) in 3 mL of saline was injected intravenously. Scanning was performed for 140 minutes in a Computer Technology Imaging (CTI) positron tomograph (model 931-08/12; 15 slice, 6.5-mm slice thickness, full width at half maximum (FWHM) with an in-plane resolution of 6.0×6.0 mm (FWHM). The following scanning protocol was used: ten 30-s scans, followed by five 60-s scans, followed by ten 5-minute scans, followed by eight 10-minute scans. In every case, an initial transmission scan was performed 2.0 minutes prior to radiotracer injection in order to determine the proper position of the animal in the gantry. Upon completion of this scan, adjustments in position were made as necessary and a regular transmission scan (10 minutes) was performed in order to correct for the attenuation of the annihilation photons. The tomograph was cross calibrated with the well-counter used for the measurement of radioactivity in the plasma samples. A rectilinear scan was performed by placing the baboon's head in the gantry and moving through the rostral caudal extent of the animal (10-mm increments) to include the bladder at the most caudal level. Scanning was performed for 1.5 minutes at each position. Vital signs including heart and respiratory rate were monitored and recorded throughout the length of the study.
The time-activity curve for F-18 after the injection of 6-[^18 F]FNE was generated from a region of interest over the left ventricular wall and the septum. Immediately following completion of the dynamic acquisition, a rectilinear scan (qualitative) was performed beginning at the head and continuing throughout the rostral-caudal extent of the trunk.

[7] = Vital signs including heart and respiratory rate during PET study; type: in vivo, baboon (Papio anubis); conditions: at any time during the study; 5 mCi, 0.4 μg i.v.
Experimental: as §1

[8] = tracers administered in vivo; Goldstein et al. 1990, Mislankar et al. 1988; cited from earlier work
dopamine β-hydroxylase [9] = conditions: Levin et al. 1960; Goldstein et al. 1962; cited from earlier work
vesicular transporter = conditions: Matthaei et al. 1988; cited from earlier work

C[C@H](N[11CH3])[C@H](O)c1cccc(O)c1 [[^11 C]m-hydroxyephedrine]
metabolic stability [1]: metabolically stable | neuronal uptake and storage [2]: share the same uptake and storage mechanisms as norepinephrine | images of the neuronal distribution (human heart): excellent images | images of the neuronal distribution (dog heart): excellent images

NCCc1cc(O)c(O)cc1F [6-fluorodopamine]
neuronal uptake and storage [2]: share the same presynaptic mechanisms for the uptake, storage, and synthesis as the parent molecules | product formed by dopamine β-hydroxylase (dopamine β-hydroxylase [3]): a new HPLC peak at 18 minutes appeared

NCC(O)c1cc(O)c(O)cc1[18F] (racemic) [racemic 6-[^18 F]FNE, 6-[^18 F]fluoronorepinephrine]
distribution of radioactivity [4]: Radioactivity was distributed in the parotid glands, the heart, liver, and bladder | clearance from blood [5]: rapid clearance from blood | peak concentration of F-18 in myocardium ([6]; 10 minutes post injection, 5 mCi racemic, i.v.): 0.042 % of the injected does/cc | ratio of myocardium to plasma ([6]; at 5 minutes, 5 mCi i.v.): 7 | ratio of myocardium to plasma ([6]; at 135 minutes, 5 mCi i.v.): 11.2 | uptake and retention/clearance of F-18 in the baboon heart ([6]; racemic, 5 mCi i.v.): high uptake and retention; also recorded: high uptake and a slow clearance | change in vital signs [7]: no change in vital signs

C[C@H](N)[C@H](O)c1cc(O)ccc1[18F] [[^18 F]fluorometaraminol]
metabolic stability [1]: metabolically stable | neuronal uptake and storage [2]: share the same uptake and storage mechanisms as norepinephrine | images of the neuronal distribution (human heart): excellent images | vasoactivity / hemodynamic effects [8]: hemodynamic effects | images of the neuronal distribution (dog heart): excellent images

NCCc1ccc(O)c(O)c1 [dopamine]
enantiospecific conversion by dopamine β-hydroxylase (dopamine β-hydroxylase [9]): enantiospecifically convert dopamine to (-)-norepinephrine | time to appearance of (-)-NE peak (dopamine β-hydroxylase [3]; dopamine as substrate): less than 1 hour | product formed by dopamine β-hydroxylase (dopamine β-hydroxylase [3]): (+)-NE was not observed

NC[C@H](O)c1ccc(O)c(O)c1 [norepinephrine]
stereoselectivity of neuronal uptake ([2]; Matthaei et al. 1988): not stereoselective | stereoselectivity for vesicular transporter (vesicular transporter): only the levorotatory enantiomer serves as a substrate for the vesicular transporter

NCC(O)c1cc(O)c(O)cc1F (racemic) [6-fluoronorepinephrine]
neuronal uptake and storage [2]: share the same presynaptic mechanisms for the uptake, storage, and synthesis as the parent molecules | neuronal uptake and storage ([2]; listed as racemic 6-fluoronorepinephrine): taken up and stored by adrenergic nerve terminals

NCCc1cc(O)c(O)cc1[18F] [[^18 F]dopamine, 6-[^18 F]fluorodopamine]
vasoactivity / hemodynamic effects [8]: hemodynamic effects
